According to patent US6617440B1, “Myostatin regulatory region, nucleotide sequence determination and methods for its use” (Pfizer, Inc., priority 1999, dated 2003):

Tests used:
[1] = system: luciferase reporter gene in C2C12 cells; assay: Transient transfection luciferase reporter assay of myostatin promoter fragments; type: cell-based, murine; conditions: normalized against Renilla luciferase activity
Procedure: C2C12 are murine muscle cell lines (ATCC #CRL-1772). These cells were maintained in standard culture media at 37° C.
The 1.8 kb and 2.5 kb myostatin promoter fragments and additional subclones of 320 bp and 901 bp proximal to the myostatin protein coding region were placed into the multicloning site of the pGL3 basic vector (Promega) 5′ to the coding sequence for luciferase. In this vector, the luciferase gene lacks a promoter, and, consequently, is under the control of any promoter cloned upstream of it. These plasmid vectors were used to transiently transfect C2C12 cells, using Fugene (Boehringer Mannheim) as a carrier to introduce the plasmid into the cells. The cell cultures were grown at 37° C., 5% CO2, in DMEM, and luciferase activity was measured using a commercial kit (Promega Luciferase Assay System, E150).
The ability of the various fragments of the murine myostatin promoter region to control expression of the luciferase reporter gene in transient transfection assays is shown in FIG. 2. In each experiment, C2C12 cells were co-transfected with a second vector that employs a CMV promotor to express constitutively a Renilla luciferase gene (pRL-CMV, Promega). Values presented for the myostatin promoter constructs were all normalized against Renilla luciferase activity.

C2C12 muscle cells = assay: Expression of porcine GHRH from a myostatin promoter vector transiently transfected into C2C12 muscle cells; type: cell-based, murine; conditions: transient transfection, compared with a CMV promoter
Excerpt: Direct injection into muscle of DNA plasmids with muscle specific or constitutive promoters results in expression of the gene under control of that promoter. A vector utilizing the murine 2.5 kb myostatin promoter to drive expression of porcine growth hormone releasing hormone (GHRH) was constructed. […] In accordance with the present invention, the construct may be directly introduced into a host by direct injection of naked DNA.

## 2.5 kb fragment: 2482 bp DNA fragment immediately 5' to the murine myostatin gene, the murine myostatin promoter (SEQ ID NO: 1)
[1]
  transcriptional activity (luciferase reporter expression), in words: strongest promoter of those tested
C2C12 muscle cells
  expression of GHRH detected in culture supernatants: levels similar to those found using a CMV promoter
